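Test compounds were applied to cells in 96-well plates for 48 hours at 5 doses. The concentration for 50% growth inhibition is given as GI50. TGI is the concentration that stops growth completely.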
Tests used:
Test in all cases: growth of human tumour cells (NCI), 48 h
DLD-1 colon = system: DLD-1 colon
DMS 114 small cell lung = system: DMS 114 small cell lung
DMS 273 small cell lung = system: DMS 273 small cell lung
HOP-18 NSCLC = system: HOP-18 NSCLC
KM20L2 colon = system: KM20L2 colon
LXFL 529 NSCLC = system: LXFL 529 NSCLC
M19-MEL melanoma = system: M19-MEL melanoma
OVCAR-3 ovarian = system: OVCAR-3 ovarian
RPMI-8226 leukemia = system: RPMI-8226 leukemia
SNB-78 CNS = system: SNB-78 CNS
XF 498 CNS = system: XF 498 CNS

| SMILES | TGI (OVCAR-3 ovarian) | TGI (RPMI-8226 leukemia) | also measured |
| --- | --- | --- | --- |
| CC#CC#C/C=C1\C=CC2(OC=CC2O)O1 (stereo not drawn) | > 20 µM | > 23.3 µM | TGI (DLD-1 colon): > 23.3 µM; TGI (DMS 114 small cell lung): > 22.5 µM; TGI (DMS 273 small cell lung): > 23.3 µM; TGI (HOP-18 NSCLC): 14.9 µM; TGI (KM20L2 colon): 10.4 µM; TGI (LXFL 529 NSCLC): > 23.3 µM; TGI (M19-MEL melanoma): > 23.3 µM; TGI (SNB-78 CNS): > 7.37 µM; TGI (XF 498 CNS): > 23.3 µM |
| CCOc1cc2c(cc1O)C(=O)C[C@@H]1[C@@H]2CC[C@]2(C)[C@@H](O)CC[C@@H]12 | 1.7 µM | > 9.48 µM | – |
| CCCCCCCCCCCCCCCC(=O)OC1C(O)C(O)C(O)C(O)C12CO2 (stereo not drawn) | 73 µM | > 100 µM | – |
| COCCCNc1c2ccccc2nc2ccccc12 | 7.55 µM | – | – |
| Cc1c(C#N)c2nc3ccccc3n2c(=O)/c1=C/Nc1ccc(Cl)cc1 | – | > 100 µM | – |
| CC(C)CC1N=C(OCc2ccccc2)OC1=O (stereo not drawn) | > 100 µM | > 100 µM | – |
| CC(=O)OCC1OC(O[C@H]2C=C[C@@H](C(=O)OCc3ccccc3)n3c(=O)n(-c4ccccc4)c(=O)n32)C(OC(C)=O)C(OC(C)=O)C1OC(C)=O (stereo partly drawn) | 3.18 µM | 3.31 µM | – |
| COc1ccc(C=O)cc1OS(=O)(=O)C(F)(F)C(F)(F)C(F)(F)C(F)(F)F | > 69.2 µM | 54.3 µM | – |
| C#CCn1c(=O)ccn(/C(=C/C(=O)OCC)C(=O)OCC)c1=O | 13.7 µM | > 24.6 µM | – |
| CC/C=C\C=C/C(=O)N/C=C/CCC | > 100 µM | > 100 µM | – |
| COc1cccc(/C=N/[N-]C(N)=O)c1[O-].[Co+2].[OH3+].c1ccncc1 | > 100 µM | > 100 µM | TGI (KM20L2 colon): > 100 µM |
| COC(=O)[C@H](Cc1ccccc1)NC(=O)N(CCNC(=O)OC(C)(C)C)c1ccccc1 | > 100 µM | > 100 µM | – |
| CCOC(=O)CC1Nc2ccccc2C12CCc1c([nH]c3ccccc13)C2C(=O)OCC (stereo not drawn) | > 100 µM | 11.1 µM | – |
| NC1NCCC(=O)N1CCc1c[nH]c2ccccc12 (stereo not drawn) | 48.4 µM | 60.3 µM | – |
| C/C(=N\O)c1cccc(Nc2c3ccccc3nc3occc23)c1 | 80.1 µM | > 100 µM | – |
| O=C(OCC(OC(=O)c1ccccc1)C1CC(C2(O)CCCCC2)C(=O)O1)c1ccccc1 (stereo not drawn) | > 25 µM | > 25 µM | – |
| CN(Cc1cnc2nc(N)nc(N)c2n1)c1ccc(C(=O)NCCCC(=O)O)cc1 | > 100 µM | > 100 µM | – |
| CN(C)CC(C)(C)CN1c2ccccc2Sc2ccccc21 | 24.3 µM | 35.8 µM | – |
| Cc1ccc(S(=O)(=O)Nn2c(S)c(C#N)c(-c3ccc(Cl)cc3)c(C#N)c2=O)cc1 | > 100 µM | 88.8 µM | – |
| OC(Cc1cc(CC(O)(C(F)(F)F)C(F)(F)F)nc(CC(O)(C(F)(F)F)C(F)(F)F)c1)(C(F)(F)F)C(F)(F)F | 1.96 µM | > 10 µM | – |
| C=C1CC[C@@H]2[C@](C)(COC(=O)CCC(=O)O)CCC[C@@]2(C)[C@@H]1CCC1=CC(=O)OC1 | > 100 µM | > 100 µM | – |
| COc1cc(C(c2ccc3c(c2)OCO3)C2SCCCS2)cc(OC)c1OC (stereo not drawn) | 27.4 µM | 7.77 µM | – |
| O=C(Nc1ccc(Cl)cc1)c1cc(S(=O)(=O)N2CCNNC2=O)c(S)cc1Cl | > 100 µM | > 100 µM | – |
| CN(C)NC1=NS(=O)(=O)c2cc3c(=O)n(C)[nH]c3cc2S1 | > 10 µM | > 10 µM | – |

| SMILES | TGI (OVCAR-3 ovarian) | TGI (RPMI-8226 leukemia) | also measured |
| --- | --- | --- | --- |
| COC(=O)C1=CCC2c3[nH]c4ccccc4c3CCN2C1 (stereo not drawn) | > 354 µM | > 354 µM | TGI (DLD-1 colon): > 354 µM; TGI (DMS 114 small cell lung): > 354 µM; TGI (DMS 273 small cell lung): > 354 µM; TGI (KM20L2 colon): > 354 µM; TGI (LXFL 529 NSCLC): > 354 µM; TGI (M19-MEL melanoma): > 354 µM |
| C=C(C)COc1cc(NC(=S)OC(C)C)ccc1Cl | 29.6 µM | 54.1 µM | – |
| CC1(C)[C@H]2Cc3cc4nc5ccccn5c4cc3[C@@H]1C2 | 35.6 µM | 69.3 µM | – |
| O=C(CC(C(=O)c1cccs1)c1ccc2c(c1)OCO2)c1ccccc1 (stereo not drawn) | > 100 µM | > 100 µM | – |
| Cn1c(=O)cc(Nc2ccc(N)cc2)[nH]c1=O | > 100 µM | > 100 µM | – |
| CC(C)C(/C=C/c1ccc(Cl)cc1)=N\NC(=O)N/N=C(/C=C/c1ccc(Cl)cc1)C(C)C | 35.8 µM | > 100 µM | – |
| Cc1ccc(-c2cc(=O)c(=O)[nH][nH]2)cc1 | > 100 µM | – | – |
| CCOC(=O)c1cc([N+](=O)[O-])c(Sc2ncnc3nc[nH]c23)c([N+](=O)[O-])c1 | 7.52 µM | 6.08 µM | – |
| Cn1c(=O)c2c(=O)cc(N)[nH]c2n(C)c1=O | > 100 µM | > 100 µM | – |
| C=C(C)CCC(O)[C@](C)(O)[C@H]1[C@H](O)C[C@@]2(C)[C@@H]3CCc4c(cc(OC5OC(CO)C(O)C(O)C5O)c(O)c4C)C3(C)C(=O)C[C@]12C (stereo partly drawn) | > 100 µM | – | – |
| O=C1N[C@H](C(=O)O)[C@@H](c2ccc(OCc3ccccc3)cc2)O1 | > 100 µM | > 100 µM | – |
| CN1CCc2c(sc3ncn(Nc4ccc(F)cc4)c(=N)c23)C1 | > 100 µM | > 100 µM | – |
| S=C1NNC2(C(=S)N1)c1ccccc1-c1ccccc12 | – | > 10 µM | – |
| Cc1cccc(-c2nc(-c3cnccn3)n(Cc3ccccc3)n2)c1 | > 100 µM | > 100 µM | – |
| C[C@@H](c1ccccc1)N1CO[C@@]2(C#Cc3ccc4c(c3)OCO4)CCC[C@@H]12 | – | 38 µM | – |
| C/C(CCN(C)C)=N\OC(=O)c1ccccc1 | > 100 µM | > 100 µM | TGI (DLD-1 colon): > 100 µM; TGI (DMS 114 small cell lung): > 100 µM; TGI (DMS 273 small cell lung): > 100 µM; TGI (HOP-18 NSCLC): 8.9 µM; TGI (KM20L2 colon): > 100 µM; TGI (LXFL 529 NSCLC): > 100 µM; TGI (M19-MEL melanoma): > 100 µM; TGI (SNB-78 CNS): > 100 µM |
| Cc1cc(N=Cc2c(CO)cnc(C)c2O)c(N=Cc2c(CO)cnc(C)c2O)cc1C | > 100 µM | > 100 µM | GI50 (RPMI-8226 leukemia): 26.1 µM |
| COc1ccc(CNc2nc3cc(C(F)(F)F)ccc3nc2C(=O)O)cc1 | 34.1 µM | > 100 µM | – |
| O=C(CCCn1ccnc1[N+](=O)[O-])NCCn1cnc([N+](=O)[O-])n1 | > 100 µM | > 100 µM | – |
| CC(=O)Oc1cc(-c2oc3cc(OC(C)=O)c(C4OC(CO)C(O)C(O)C4O)c(OC(C)=O)c3c(=O)c2O)c(OC(C)=O)cc1O (stereo not drawn) | > 100 µM | > 100 µM | – |
| c1cc(CSc2ncnc3nc[nH]c23)ccn1 | > 100 µM | > 100 µM | – |
| O=CC1OC(=O)c2cc(O)c(O)c(O)c2-c2c(cc(O)c(O)c2O)C(=O)OC1C1OC(=O)c2cc(O)c(O)c(O)c2-c2c(O)c(O)c3oc(=O)c4c(c(O)c(O)c5oc(=O)c2c3c54)-c2c(cc(O)c(O)c2O)C(=O)OCC1O (stereo not drawn) | > 100 µM | > 100 µM | – |
| O=C(/C=C/c1cccc(Br)c1)N1CCN(CCOC(c2ccccc2)c2ccccc2)CC1 | > 100 µM | 36.2 µM | – |

Reference: PubChem BioAssay (NCI)
